# Calls of active or inactive are those of the source. For most assays here, no stated cut-off is given here; in the data, actives have a measured EC50 and inactives only a lower limit.
# Experiments:
# [1] = Luminescence Cell-Based Dose Response HTS to Identify Inhibitors of 5'UTR Stem-Loop Driven Prion Protein mRNA Translation in H4 Neuroglioblastoma Cells. [Related pubchem assays: 1827 (Project Summary), 1813 (Primary HTS)]; assay type: functional
# [2] = inhibitors of firefly luciferase expression or activity, dose response, H4 neuroglioma cells, luminescence (AID 1990); assay type: functional, cell-based
# [3] = inhibitors of SNCA 5'UTR-driven reporter translation, confirmation, H4 neuroglioma cells, luminescence (AID 1988); assay type: functional, cell-based
# Streptococcus = assay: Group A Streptococcus viability loss, dose response, counter-screen for streptokinase expression inhibitor project, luminescence, BacTiterGlo (AID 1915); assay type: functional, organism-based;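 further: potency for reduction of bacterial viability or growth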
# [4] = molecular target: T1, Zinc finger protein mex-5 (Caenorhabditis elegans, UniProt Q9XUB2); assay: MEX-5/TCR-2 RNA interaction inhibitors, dose response, biochemical, C. elegans, fluorescence polarization (AID 1960)
# T1 sequence (Q9XUB2 whole entry): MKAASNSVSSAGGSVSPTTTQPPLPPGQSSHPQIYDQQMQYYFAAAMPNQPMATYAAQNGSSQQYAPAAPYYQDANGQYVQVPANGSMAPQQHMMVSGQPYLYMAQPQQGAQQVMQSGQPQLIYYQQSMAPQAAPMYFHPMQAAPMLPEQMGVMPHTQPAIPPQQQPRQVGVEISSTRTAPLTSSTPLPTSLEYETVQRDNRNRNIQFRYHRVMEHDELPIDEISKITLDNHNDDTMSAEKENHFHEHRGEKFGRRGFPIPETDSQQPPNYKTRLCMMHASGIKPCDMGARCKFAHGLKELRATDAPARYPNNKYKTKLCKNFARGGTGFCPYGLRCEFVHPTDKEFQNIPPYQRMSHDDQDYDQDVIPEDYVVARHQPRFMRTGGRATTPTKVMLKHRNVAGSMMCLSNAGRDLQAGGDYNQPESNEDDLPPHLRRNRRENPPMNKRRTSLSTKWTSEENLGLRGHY
# [5] = molecular target: T2, RNA-binding protein pos-1 (Caenorhabditis elegans, UniProt G5EF15); assay: inhibitors of POS-1/mex-3 RNA binding, dose response, biochemical, fluorescence polarization (AID 1964);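 further: purified POS-1 fused to maltose binding protein made in E. coli; potency of compounds blocking POS-1 binding to fluorescent RNA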
# T2 sequence (G5EF15 whole entry): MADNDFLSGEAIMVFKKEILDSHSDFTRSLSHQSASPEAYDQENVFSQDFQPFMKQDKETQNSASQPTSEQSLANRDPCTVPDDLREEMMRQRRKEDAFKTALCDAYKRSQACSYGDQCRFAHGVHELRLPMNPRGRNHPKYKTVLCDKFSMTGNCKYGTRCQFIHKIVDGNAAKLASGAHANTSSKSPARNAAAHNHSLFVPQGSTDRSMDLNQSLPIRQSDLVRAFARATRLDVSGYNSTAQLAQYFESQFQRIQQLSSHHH
# [6] = system: Streptococcus sp. 'group A'; assay: growth inhibition of control SK(-) GAS strain, dose response, counter-screen for streptokinase expression inhibitor project, luminescence, kanamycin, BacTiterGlo, confirmation (AID 1900); assay type: functional, organism-based
# [7] = inhibitors of intracellular T. cruzi replication, confirmation, NIH3T3 host cells, beta-gal luminescence (AID 2044); assay type: functional, cell-based;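 further: intracellular parasites grown in NIH/3T3 mouse fibroblasts as host cells; luminescent beta-galactosidase reporter signal from transgenic T. cruzi replicating inside host cells; inhibitors lower the luminescence signal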
# [8] = cytotoxicity toward NIH3T3 fibroblasts, dose response, counter-screen, cell-based, ATP luminescence, mouse fibroblasts (AID 2010); assay type: functional;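 further: cells exposed to compound for about 90 hours before reading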
# Protein RecA = molecular target: T3, Protein RecA (Mycobacterium tuberculosis, UniProt P9WHJ3); assay: Fluorescence Cell-Free Homogeneous Dose Retest to Identify Inhibitors of RecA-Intein Splicing Activity. [Related pubchem assays (depositor defined):AID2097, AID2223, AID489010, AID492950]; assay type: functional
# T3 sequence (P9WHJ3 whole entry): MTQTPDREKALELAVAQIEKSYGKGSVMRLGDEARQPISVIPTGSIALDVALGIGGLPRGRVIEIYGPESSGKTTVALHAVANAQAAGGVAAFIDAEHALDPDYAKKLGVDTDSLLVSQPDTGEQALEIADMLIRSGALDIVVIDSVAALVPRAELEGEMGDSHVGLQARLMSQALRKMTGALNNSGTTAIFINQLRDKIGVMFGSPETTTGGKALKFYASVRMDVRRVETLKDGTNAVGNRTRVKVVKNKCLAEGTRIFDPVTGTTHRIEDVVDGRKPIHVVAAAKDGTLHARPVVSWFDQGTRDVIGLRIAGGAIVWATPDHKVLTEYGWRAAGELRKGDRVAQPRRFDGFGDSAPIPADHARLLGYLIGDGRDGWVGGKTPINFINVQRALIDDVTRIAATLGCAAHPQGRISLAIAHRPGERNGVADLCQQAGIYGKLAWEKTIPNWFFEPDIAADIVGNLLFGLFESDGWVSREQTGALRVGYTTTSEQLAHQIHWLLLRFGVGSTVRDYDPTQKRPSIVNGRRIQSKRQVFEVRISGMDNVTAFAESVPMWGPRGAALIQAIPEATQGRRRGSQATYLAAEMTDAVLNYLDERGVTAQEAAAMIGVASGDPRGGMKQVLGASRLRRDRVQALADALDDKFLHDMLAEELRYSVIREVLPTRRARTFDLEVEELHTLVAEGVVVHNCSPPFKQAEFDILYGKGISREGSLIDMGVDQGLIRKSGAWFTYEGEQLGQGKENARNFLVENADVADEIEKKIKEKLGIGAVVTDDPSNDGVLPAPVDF
# [9] = molecular target: T4, Replicative DNA helicase DnaB (Mycobacterium tuberculosis, UniProt P9WMR3); assay: DnaB intein splicing inhibitors, dose response, biochemical, cell-free fluorescence (AID 449749); assay type: functional
# T4 sequence (P9WMR3 whole entry): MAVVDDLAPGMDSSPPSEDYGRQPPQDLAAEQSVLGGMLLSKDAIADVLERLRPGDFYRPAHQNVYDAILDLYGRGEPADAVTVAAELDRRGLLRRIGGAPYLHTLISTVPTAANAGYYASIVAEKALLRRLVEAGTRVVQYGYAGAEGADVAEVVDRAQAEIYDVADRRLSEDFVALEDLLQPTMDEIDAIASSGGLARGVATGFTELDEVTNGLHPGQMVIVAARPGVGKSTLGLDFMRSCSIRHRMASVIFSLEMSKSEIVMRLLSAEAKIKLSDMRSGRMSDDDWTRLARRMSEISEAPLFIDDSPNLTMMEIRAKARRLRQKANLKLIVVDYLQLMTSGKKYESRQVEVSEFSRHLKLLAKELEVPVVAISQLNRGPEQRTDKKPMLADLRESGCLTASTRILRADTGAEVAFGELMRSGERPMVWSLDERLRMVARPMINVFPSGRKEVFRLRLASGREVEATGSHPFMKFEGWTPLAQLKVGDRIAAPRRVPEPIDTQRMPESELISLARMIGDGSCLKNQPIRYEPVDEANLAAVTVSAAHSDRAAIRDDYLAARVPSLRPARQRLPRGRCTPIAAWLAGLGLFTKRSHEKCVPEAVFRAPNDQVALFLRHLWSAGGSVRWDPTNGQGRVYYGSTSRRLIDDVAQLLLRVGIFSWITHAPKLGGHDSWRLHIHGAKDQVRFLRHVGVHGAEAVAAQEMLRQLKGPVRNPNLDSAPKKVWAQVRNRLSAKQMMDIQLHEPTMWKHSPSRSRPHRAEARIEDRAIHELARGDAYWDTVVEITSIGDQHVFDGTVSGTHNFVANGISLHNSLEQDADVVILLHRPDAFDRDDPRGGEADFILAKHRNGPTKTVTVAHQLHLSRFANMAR
# [10] = molecular target: T5, Rac GTPase-activating protein 1 (Homo sapiens, UniProt Q9H0H5); assay: MgcRacGAP GTPase-activating activity inhibitors, confirmation, biochemical, ADP Hunter fluorescence, primary and confirmatory (AID 624330); assay type: functional
# T5 sequence (Q9H0H5 whole entry): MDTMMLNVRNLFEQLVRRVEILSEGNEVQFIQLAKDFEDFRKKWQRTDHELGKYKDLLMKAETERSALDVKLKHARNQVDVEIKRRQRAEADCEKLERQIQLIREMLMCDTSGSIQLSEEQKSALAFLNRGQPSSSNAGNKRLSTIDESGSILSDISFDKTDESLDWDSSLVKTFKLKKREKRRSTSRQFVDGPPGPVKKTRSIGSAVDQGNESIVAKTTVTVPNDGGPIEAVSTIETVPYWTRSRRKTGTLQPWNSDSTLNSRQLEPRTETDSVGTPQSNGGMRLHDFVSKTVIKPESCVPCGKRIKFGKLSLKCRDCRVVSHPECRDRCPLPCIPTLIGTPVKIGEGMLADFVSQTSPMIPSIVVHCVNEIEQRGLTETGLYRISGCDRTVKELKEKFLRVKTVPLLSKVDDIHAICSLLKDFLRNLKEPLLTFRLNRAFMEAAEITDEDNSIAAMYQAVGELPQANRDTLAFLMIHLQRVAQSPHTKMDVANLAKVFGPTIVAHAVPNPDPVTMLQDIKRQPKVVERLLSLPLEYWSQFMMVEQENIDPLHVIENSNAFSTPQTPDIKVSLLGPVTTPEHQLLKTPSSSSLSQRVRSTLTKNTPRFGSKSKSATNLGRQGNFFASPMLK
# [11] = NIH-3T3 fibroblast cytotoxicity, dose response, cytotoxicity control, cell-based, fluorescence, Alamar Blue, secondary assay (AID 2327); assay type: functional;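 further: NIH-3T3 mouse fibroblasts cultured with fluconazole at 8 µg/mL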
# [12] = C. albicans growth with fluconazole, confirmation, fluorescence, retest (AID 2467); assay type: functional, cell-based
# cells = assay type: functional
compound,measurement,setting,value
CCC1(CC)NC(=O)N(CC(=O)N2N=C(c3ccc(Cl)cc3)CC2c2ccco2)C1=O (stereo not given),EC50,[1],> 120 µM (not active)
same,EC50,[2],> 120 µM (not active)
same,EC50,[3],> 120 µM (not active)
CCOC(=O)N1CCN(C(=O)c2ccc3c(c2)NC(=O)/C(=C\c2ccc(OC)c(OC)c2)S3)CC1,EC50,Streptococcus,5.67 µM (active)
same,EC50,[4],> 300 µM (inconclusive)
same,EC50,[5],> 300 µM (not active)
same,EC50,[6],0.875 µM (active)
CC1(C)Cc2c(c(N3CCOCC3)nc3sc4c(NCc5ccccc5)nnnc4c23)CS1,EC50,[7],1.13 µM (active)
same,EC50,[1],20.8 µM (active)
same,EC50,[2],25 µM (active)
same,EC50,[8],> 60 µM (not active)
same,EC50,[3],10.6 µM (active)
CC(C)(C)NC(=O)C(c1ccc(Cl)cc1)N(Cc1ccco1)C(=O)CCl (stereo not given),EC50,Protein RecA,1.97 µM (active)
same,AC50,[9],24.1 µM (active)
CN1C(=O)C(=C2CC(c3ccccc3)N(C(=O)CCl)N2)C(=O)N(C)C1=O (stereo not given),EC50,Protein RecA,0.351 µM (active)
same,AC50,[9],2.05 µM (active)
Cc1ccc(CS(=O)(=O)Cc2ccc(C(=O)NC3CCCCCC3)o2)cc1,EC50,[1],> 120 µM (not active)
same,EC50,[2],24.3 µM (active)
same,EC50,[3],22.5 µM (active)
Oc1ccc(CCc2ccccn2)cc1,IC50,[10],40 µM (active)
Oc1ccc(/C=N/Nc2ncc(Cl)cc2Cl)cc1,IC50,[10],32.3 µM (active)
C=CCNC(=S)Nc1ccc(OC(=O)Nc2ccc(Cl)c(Cl)c2)cc1,IC50,[10],89 µM (active)
COC(=O)c1ccc(-n2c(C)ccc2-c2ccccc2)cc1,EC50,[4],> 300 µM (not active)
same,EC50,[5],> 300 µM (not active)
Cc1c(N(C)C)nc2ccccc2c1N,IC50,[10],102 µM (active)
CC1=NNC(=O)C1Cc1c(Cl)cccc1Cl (stereo not given),EC50,Protein RecA,0.642 µM (active)
same,AC50,[9],1.39 µM (active)
Cc1cccc(N(C)S(=O)(=O)c2nnc(NC(=O)c3ccco3)s2)c1,EC50,[4],> 300 µM (not active)
same,EC50,[5],> 300 µM (not active)
O=C(O)c1cc(-n2cccc2)ccc1N1CCOCC1,EC50,[4],74.3 µM (active)
same,EC50,[5],> 300 µM (not active)
CCOC(=O)c1c(NC(=O)/C=C/C(=O)O)sc(C)c1-c1ccc(F)cc1,EC50,Protein RecA,6.23 µM (active)
same,AC50,[9],14.3 µM (active)
Cn1c(SCC(=O)NCc2ccc(F)cc2)nc2ccccc21,EC50,Protein RecA,> 380 µM (inactive)
same,AC50,[9],124 µM (active)
Nc1ccc(N2CCN(c3cccc(Cl)c3)CC2)cc1,IC50,[10],21 µM (active)
same,EC50,[11],> 150 µM (inactive)
same,EC50,[12],> 38 µM (not active)
C=CCn1c(-c2cccnc2Cl)nc2ccccc21,EC50,Protein RecA,> 380 µM (inactive)
same,AC50,[9],> 380 µM (inactive)
CC(C)CC1C(C#N)=C(N)Oc2[nH]nc(-c3cccs3)c21 (stereo not given),EC50,Protein RecA,58.1 µM (active)
same,AC50,[9],48.8 µM (active)
Cc1ccc(-n2nc(-c3ccco3)cc2C(=O)NCc2cccnc2)cc1,EC50,[1],38.1 µM (active)
same,EC50,[2],> 120 µM (not active)
same,EC50,[3],> 120 µM (not active)
COc1cc(C=NNC(=O)c2ccccc2-n2cccc2)ccc1O,IC50,[10],32.7 µM (active)
COc1ccc(CCNC(=O)CNCC(c2ccccc2)N(C)C)cc1OC (stereo not given),IC50,[10],78.4 µM (active)
O=C(NNC(=O)c1ccccc1[N+](=O)[O-])c1cnccn1,EC50,[4],1.25 µM (active)
same,EC50,[5],76.5 µM (active)
O=C(/C=C/c1c(Cl)cccc1Cl)N1CCOCC1,EC50,[4],> 300 µM (not active)
same,EC50,[5],> 300 µM (not active)
Oc1cccc(/C=N/N=C/c2cccc(O)c2O)c1O,EC50,[4],24.6 µM (active)
same,EC50,[5],42.9 µM (active)
O=C(Oc1ccc(Br)cc1C(=S)N1CCOCC1)c1cccc([N+](=O)[O-])c1,EC50,Protein RecA,23.1 µM (active)
same,AC50,[9],18.2 µM (active)
NC(=O)c1ccsc1N,EC50,[4],10.1 µM (inconclusive)
same,EC50,[5],10.9 µM (active)
CC(=O)Nc1ccc(OC(=O)c2ccc(Br)c([N+](=O)[O-])c2)cc1,IC50,[10],36.4 µM (active)
same,IC50,cells,10.1 µM (active)
OCCN1CCN(CC(O)COC(c2ccc(F)cc2)c2ccc(F)cc2)CC1 (stereo not given),IC50,[10],121 µM (active)

# Source: ChEMBL document CHEMBL1201862, “PubChem BioAssay data set” (2004)
